The values that follow come from patent publication KR20110129297A, “양친매성 갈롤 유도체를 유효성분으로 포함하는 항균제조성물” (전남대학교산학협력단, priority 2010, dated 2011).

Data set [1] concerns food spoilage bacteria and pathogens [식품부패균 및 병원성균]. Put plainly: Paper disc growth inhibition zone, food spoilage bacteria and pathogens (9 strains). The following applies: 5 μmol per disc, solid medium, 12-16 h at 37, 30 or 25 °C depending on strain. The data set is classed as cell-based.
For data set [2], the system named is Helicobacter pylori [헬리코박터 파일로리]. The data set can be described thus: Paper disc growth inhibition zone, Helicobacter pylori. The data set is classed as cell-based. As to conditions: for zone of inhibition at 5 µmol/disc: Helicobacter pylori, read-out: diameter of growth inhibition zone.
Data set [3] has as its system food spoilage bacteria and pathogens [식품부패균 및 병원성균]. The data set can be described thus: Minimum inhibitory concentration, food spoilage bacteria and pathogens (9 strains). As to conditions: liquid dilution 1000-4 μg/mL. The data set is classed as cell-based.
For data set [4] the following is noted: no test in this patent; mouse allergy test of urushiol derivatives cited (b4); cited from earlier work.
In a further data set the test system is S. aureus. Put plainly: Minimum inhibitory concentration, Staphylococcus aureus. Type of data set: cell-based. The following applies: 37 °C, 12-16 h, inoculum 10^5-10^7 cfu/mL, read-out: minimum inhibition concentration (MIC).
The conditions of data set [5]: cited master's thesis / KR 2009066135 A; cited from earlier work.
Data set [6] concerns cells causing lung cancer or stomach cancer [폐암이나 위암을 일으키는 세포]. As to conditions: background statement; cited from earlier work.
[7] abbreviates: paper disc, 5 μmol per disc, CO2 incubator 37 °C, 10% CO2, 95% humidity.

Values after ≈ are worked out from the molar mass of the structure shown. “Also recorded” adds a separate entry of the source. Where two headings read alike, the source gives them in different places.

On to `CCCCCCCCCCCCCCCc1ccc(O)c(O)c1O` [PDG, 4-pentadecyl-1,2,3-benzenetriol], for which the “antimicrobial activity (growth inhibition zone), in words” value in data set [1] was “전혀 항균활성을 보이지 않았다”. For the same molecule, the zone of inhibition (usually the size of the clear area around the sample on an inoculated plate) at 5 µmol/disc in data set [2] was 0 mm.
As to `CN(C)[C@@H]1C(O)=C(C(N)=O)C(=O)[C@@]2(O)C(O)=C3C(=O)c4c(O)cccc4[C@@](C)(O)[C@H]3C[C@@H]12` [테트라사이클린, tetracycline], the zone of inhibition at 5 µmol/disc in data set [2] (setting [7]) amounted to 9 mm.
As to `CCCCCCCCCCc1ccc(O)c(O)c1O` [DG, 4-decyl-1,2,3-benzenetriol], the zone of inhibition at 5 µmol/disc in data set [2] (setting [7]) amounted to 7 mm.
For `CCn1cc(C(=O)O)c(=O)c2ccc(C)nc21` [날리디식 에시드, nalidixic acid], the zone of inhibition at 5 µmol/disc in data set [2] (setting [7]) stood at 11 ± 0.2 mm.
Same read-out and setting: for `CC[C@H]1OC(=O)[C@H](C)[C@@H](O[C@H]2C[C@@](C)(OC)[C@@H](O)[C@H](C)O2)[C@H](C)[C@@H](O[C@@H]2O[C@H](C)C[C@H](N(C)C)[C@H]2O)[C@](C)(O)C[C@@H](C)C(=O)[C@H](C)[C@@H](O)[C@]1(C)O` [에리스로마이신, erythromycin] the value was 7 mm.
Same read-out and setting: for `CC1(C)S[C@@H]2[C@H](NC(=O)[C@H](N)c3ccccc3)C(=O)N2[C@H]1C(=O)O` [앰피실린, ampicillin] the value was 7 mm.
As to `CCCCCc1ccc(O)c(O)c1O` [PG, 4-pentyl-1,2,3-benzenetriol], the “antimicrobial activity (growth inhibition zone), in words” value was “가장 강한 항균활성을 보였다; also recorded: PC와 비슷하거나 그보다 우수한 항균활성을 보였다” in data set [1] and “가장 강한 항균활성을 보였다” in data set [2] (paper disc, 5 μmol per disc, compared with other gallol derivatives). Also, the zone of inhibition at 5 µmol/disc in data set [2] (setting [7]) came out at 26.7 ± 0.6 mm. The “antimicrobial activity by minimum inhibition concentration, in words” value in data set [3] is “최소저해농도 결과에 있어서 뛰어난 항균활성을 나타내지 않았다; also recorded: 측쇄가 없는 G보다는 PG가 더 낮은 농도에서 활성을 보였다”. The “allergenicity, in words” value in data set [4] is listed as “알러지 비유발성”.
As for `O=C(O)c1ccccc1` [벤조익 에시드, benzoic acid], the MIC in the data set with S. aureus was 250 µM (≈ 30.5 µg/mL).
As for `CCCCCCCCCCCCCCCCCCCCc1ccc(O)c(O)c1O` [EG, 4-eicosyl-1,2,3-benzenetriol], the “antimicrobial activity (growth inhibition zone), in words” value in data set [1] is given as “전혀 항균활성을 보이지 않았다”. Also, in data set [2] (setting [7]), the zone of inhibition at 5 µmol/disc was 0 mm.
Turning to `CCCCCc1cccc(O)c1O` [PC, 3-pentylcatechol], the zone of inhibition at 5 µmol/disc in data set [2] (setting [7]) turned out to be 31.5 ± 0.5 mm. Besides, the “allergenicity, in words” value in data set [4] is “알러지 비유발성”. For the same molecule, the “antimicrobial activity, in words” value in data set [5] is reported as “강한 항균활성을 보였던”.
On to `Oc1cccc(O)c1O` [G, pyrogallol], for which, in data set [1], the “antimicrobial activity (growth inhibition zone), in words” value is on record as “매우 약한 항균활성을 보였으며”. The zone of inhibition at 5 µmol/disc in data set [2] (setting [7]) was found to be 0 mm. In data set [6], the “inhibition of cancer cell growth, in words” value is listed as “폐암이나 위암을 일으키는 세포의 생장을 억제시키는 항암작용에도 효과가 있음”.
